Data reported in patent US8987249B2, “Substituted 2-Aza-bicyclo[2.2.1]heptane-3-carboxylic acid (benzyl-cyano-methyl)-amides inhibitors of Cathepsin C” (Boehringer Ingelheim International GmbH, priority 2013, dated 2015).

Tests used:
[1] = biological target: recombinant human Cathepsin K (Homo sapiens (Human), UniProt P43235); assay: Inhibition of human Cathepsin K; assay type: biochemical; conditions: substrate Z-Gly-Pro-Arg-AMC
Excerpt: Inhibition of Human Cathepsin K
Materials: Microtiterplates (Optiplate-384 F were purchased from PerkinElmer (Prod. No. 6007270). The substrate Z-Gly-Pro-Arg-AMC was from Biomol (Prod.-No. P-142). L-Cysteine (Prod. No. 168149) was from Sigma. Sodium acetate was from Merck (Prod.-No. 6268.0250), EDTA was from Fluka (Prod.-No. 03680). The inhibitor E-64 was purchased from Sigma (Prod.-No. E3132). The recombinant human Cathepsin K proenzyme was purchased from Biomol (Prod. No. SE-367). All other materials were of highest grade commercially available.
The following buffers were used: Activation buffer: 32.5 mM sodium acetate, adjusted to pH 3.5 with HCl; Assay buffer: 150 mM sodium acetate, 4 mM EDTA, 20 mM L-Cysteine, adjusted to pH 5.5 with HCl,
To activate the proenzyme, 5 μl procathepsin K were mixed with 1 ul activation buffer, and incubated at room temperature for 30 min.
5 μL test compound (final concentration 0.1 nM to 100 μM) in aqua bidest (containing 4% DMSO, final DMSO concentration 1%) were mixed with 10 uL of Cathepsin K in assay buffer (final concentration 2 ng/μL) and incubated for 10 min. […] The plates were then incubated at room temperature for 60 min. Then, the reaction was stopped by adding 10 μL of E64 in assay buffer (final concentration 1 μM). The fluorescence in the wells was determined using a Molecular Devices SpectraMax M5 Fluorescence Reader (Ex 360 nm, Em 460 nm).
Each assay microtiter plate contains wells with vehicle controls (1% DMSO in bidest) as reference for non-inhibited enzyme activity (100% Ctl; high values) and wells with inhibitor (E64 in bidest+1% DMSO, final concentration […]) as controls for background fluorescence (0% Ctl; low values). The analysis of the data was performed by calculating the percentage of fluorescence in the presence of test compound in comparison to the fluorescence of the vehicle control after subtracting the background fluorescence: (RFU(sample)−RFU(background))*100/(RFU(control)−RFU(background))
Data from these calculations were used to generate IC50 values for inhibition of Cathepsin K, respectively.

[2] = biological target: recombinant human DPPI (Cathepsin C) (Homo sapiens (Human), UniProt P53634); assay: Inhibition of human DPPI (Cathepsin C); assay type: biochemical; conditions: substrate Gly-Arg-AMC
recombinant human DPPI (Cathepsin C), sequence (P53634 231-394): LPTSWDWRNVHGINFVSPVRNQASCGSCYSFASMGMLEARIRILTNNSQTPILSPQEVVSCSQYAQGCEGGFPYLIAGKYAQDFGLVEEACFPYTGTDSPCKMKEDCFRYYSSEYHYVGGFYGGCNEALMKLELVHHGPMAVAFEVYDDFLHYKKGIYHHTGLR
recombinant human DPPI (Cathepsin C), sequence (P53634 395-463): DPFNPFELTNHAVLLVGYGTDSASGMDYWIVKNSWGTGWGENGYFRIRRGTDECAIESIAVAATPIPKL
recombinant human DPPI (Cathepsin C), sequence (P53634 25-134): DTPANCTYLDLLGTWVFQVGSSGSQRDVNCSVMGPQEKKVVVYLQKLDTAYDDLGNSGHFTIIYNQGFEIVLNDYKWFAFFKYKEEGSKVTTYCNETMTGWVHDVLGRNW
Protocol: Inhibition of Human DPPI (Cathepsin C)
Bovine serum albumin (BSA; Prod. No. A3059) and Dithiothreitol (DTT; Prod. No D0632) were from Sigma. […] The DPP1 inhibitor Gly-Phe-DMK was purchased from MP Biomedicals (Prod.-No. 03DK00625). The recombinant human DPPI was purchased from Prozymex. All other materials were of highest grade commercially available.
The following buffers were used: MES buffer: 25 mM MES, 50 mM NaCl, 5 mM DTT, adjusted to pH 6.0, containing 0.1% BSA; TAGZyme Buffer: 20 mM NaH2PO4, 150 mM NaCl adjusted to pH 6.0 with HCl
Then, 5 μL of substrate in MES buffer (final concentration 50 μM) were added. The microtiter plates were then incubated at room temperature for 30 min. Then, the reaction was stopped by adding 10 μL of Gly-Phe-DMK in MES-buffer (final concentration 1 μM).
The analysis of the data was performed by calculating the percentage of fluorescence in the presence of test compound in comparison to the fluorescence of the vehicle control after subtracting the background fluorescence using the following formula: (RFU(sample)−RFU(background))*100/(RFU(control)−RFU(background))
Data from these calculations were used to generate IC50 values for inhibition of DPPI, respectively.

recombinant human Cathepsin K, sequence (P43235 115-329): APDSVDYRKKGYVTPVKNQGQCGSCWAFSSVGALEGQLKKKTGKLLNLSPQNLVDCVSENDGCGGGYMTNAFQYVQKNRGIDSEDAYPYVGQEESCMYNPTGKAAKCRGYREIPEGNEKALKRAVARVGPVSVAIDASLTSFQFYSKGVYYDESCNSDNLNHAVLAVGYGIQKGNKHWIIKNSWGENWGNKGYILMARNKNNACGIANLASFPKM

Row | IC50 [1] [nM] | IC50 [2] [nM] | SMILES
1 | 10300 | 24.9 | Cc1n[nH]cc1-c1ccc(CC(C#N)NC(=O)[C@H]2N[C@@H]3CC[C@H]2C3)c(F)c1 (stereo partly drawn) [Example 104]
2 | 8400 | 23.3 | N#CC(Cc1ccc2c(c1)[nH]c1ccccc12)NC(=O)[C@H]1N[C@@H]2CC[C@H]1C2 (stereo partly drawn) [Example 203]
3 | 12400 | 3.2 | N#CC(Cc1ccc2c(c1)c(=O)[nH]c1cc(Cl)ccc12)NC(=O)[C@H]1N[C@@H]2CC[C@H]1C2 (stereo partly drawn) [Example 297]
4 | 4700 | 25.9 | Cn1c(=O)oc2cc(-c3ccc(CC(C#N)NC(=O)[C@H]4N[C@@H]5CC[C@H]4C5)c(F)c3)ccc21 (stereo partly drawn) [Example 107]
5 | 4800 | 36.9 | CCS(=O)(=O)c1ccc(-c2ccc(C[C@@H](C#N)NC(=O)[C@H]3N[C@H]4C[C@@H]3[C@@H]3C[C@@H]34)c(F)c2)cc1 [Example 151]
6 | 3000 | 14 | N#Cc1sccc1-c1ccc(C[C@@H](C#N)NC(=O)[C@H]2N[C@@H]3CC[C@H]2C3)c(F)c1 [Example 85]
7 | 4900 | – | COc1cccc(-c2cn(-c3ccc(C[C@@H](C#N)NC(=O)[C@H]4N[C@@H]5CC[C@H]4C5)c(F)c3)nn2)c1 [Example 94]
8 | 14600 | 30.4 | N#CC(Cc1ccc(-c2ccc3c(c2)CCNC3=O)cc1F)NC(=O)[C@H]1N[C@H]2C[C@@H]1[C@@H]1C[C@@H]12 (stereo partly drawn) [Example 148]
9 | 11100 | 26.3 | CS(=O)(=O)c1cccc(-c2ccc(C[C@@H](C#N)NC(=O)[C@H]3N[C@H]4C[C@@H]3[C@@H]3C[C@@H]34)c(F)c2)c1 [Example 144]
10 | 4900 | 13.7 | N#C[C@H](Cc1ccc(-n2cc(-c3ccc4occc4c3)nn2)cc1F)NC(=O)[C@H]1N[C@@H]2CC[C@H]1C2 [Example 84]
11 | 8400 | 21.5 | CS(=O)(=O)Nc1ccc(-c2ccc(C[C@@H](C#N)NC(=O)[C@H]3N[C@H]4C[C@@H]3[C@@H]3C[C@@H]34)c(F)c2)cc1 [Example 140]
12 | 3500 | 12 | N#CC(Cc1ccc(-c2ccc3c(c2)CC(=O)N3)cc1F)NC(=O)[C@H]1N[C@@H]2CC[C@H]1C2 (stereo partly drawn) [Example 79]
13 | 5900 | 24.9 | N#CC(Cc1ccc(-c2ccoc2)cc1F)NC(=O)[C@H]1N[C@@H]2CC[C@H]1C2 (stereo partly drawn) [Example 103]
14 | 4500 | 51.2 | COc1ccccc1-c1cn(-c2ccc(C[C@@H](C#N)NC(=O)[C@H]3N[C@@H]4CC[C@H]3C4)c(F)c2)nn1 [Example 119]
15 | 19400 | 16.1 | COC(=O)c1cc(-c2ccc(C[C@@H](C#N)NC(=O)[C@H]3N[C@H]4C[C@@H]3[C@@H]3C[C@@H]34)c(F)c2)cs1 [Example 133]
16 | 2300 | 37.8 | N#C[C@H](Cc1ccc(-c2ccc(C(=O)O)s2)cc1F)NC(=O)[C@H]1N[C@@H]2CC[C@H]1C2 [Example 115]
17 | 8800 | 36.6 | CS(=O)(=O)c1ccc(-c2ccc(C[C@@H](C#N)NC(=O)[C@H]3N[C@H]4C[C@@H]3[C@@H]3C[C@@H]34)c(F)c2)cc1 [Example 141]
18 | 1100 | 1.9 | Cn1c(=O)c2cc(C[C@@H](C#N)NC(=O)[C@H]3N[C@@H]4CC[C@H]3C4)c(F)cc2c2ccccc21 [Example 326]
19 | 6700 | 17.8 | N#C[C@H](Cc1ccc(-c2ccc3c(c2)CC(=O)N3)cc1F)NC(=O)[C@H]1N[C@H]2C[C@@H]1[C@@H]1C[C@@H]12 [Example 134]
20 | 5300 | 11.4 | N#C[C@H](Cc1ccc(-c2ccccc2)cc1F)NC(=O)[C@H]1N[C@@H]2CC[C@H]1C2 [Example 75]
21 | 6400 | 14.5 | CCn1cc(-c2ccc(C[C@@H](C#N)NC(=O)[C@H]3N[C@H]4C[C@@H]3[C@@H]3C[C@@H]34)c(F)c2)cn1 [Example 138]
22 | – | 22.4 | CN1CCO[C@@H]2CN(c3ccc(C[C@@H](C#N)NC(=O)[C@H]4N[C@@H]5CC[C@H]4C5)c(F)c3)C[C@@H]21 [Example 355]
23 | – | 29.1 | N#CC(Cc1ccc2c(c1)[nH]c(=O)c1cc(F)ccc12)NC(=O)[C@H]1N[C@@H]2CC[C@H]1C2 (stereo partly drawn) [Example 207]
24 | – | 39.7 | N#C[C@H](Cc1ccc(-n2cc(C(=O)N3CCOCC3)cn2)cc1F)NC(=O)[C@H]1N[C@@H]2CC[C@H]1C2 [Example 287]

The next lines start with the compound.

Row | SMILES | IC50 [1] [nM] | IC50 [2] [nM]
25 | COC(=O)Cn1cc(-c2ccc(C[C@@H](C#N)NC(=O)[C@H]3N[C@@H]4CC[C@H]3C4)c(F)c2)cn1 [Example 13] | 3400 | 1.9
26 | CN1C(=O)Cc2ccc(-c3ccc(C[C@@H](C#N)NC(=O)[C@H]4N[C@@H]5CC[C@H]4C5)c(Cl)c3)cc21 [Example 81] | 4500 | 13.1
27 | Cn1ncc2ccc(-c3ccc(C[C@@H](C#N)NC(=O)[C@H]4N[C@H]5C[C@@H]4[C@@H]4C[C@@H]45)c(F)c3)cc21 [Example 70] | 12000 | 10.2
28 | COc1ncc(-c2cn(-c3ccc(C[C@@H](C#N)NC(=O)[C@H]4N[C@@H]5CC[C@H]4C5)c(F)c3)nn2)cn1 [Example 66] | 4800 | 9.4
29 | CC(C)Cn1cc(-c2ccc(C[C@@H](C#N)NC(=O)[C@H]3N[C@@H]4CC[C@H]3C4)c(F)c2)cn1 [Example 64] | 4200 | 9.3
30 | CC(C)(C)n1cc(-c2ccc(C[C@@H](C#N)NC(=O)[C@H]3N[C@@H]4CC[C@H]3C4)c(F)c2)cn1 [Example 23] | 3800 | 3.7
31 | N#C[C@H](Cc1ccc(-c2cnn(C(=O)C3CCOCC3)c2)cc1F)NC(=O)[C@H]1N[C@@H]2CC[C@H]1C2 [Example 74] | 2500 | 11.4
32 | CC(=O)c1ccc(-c2ccc(CC(C#N)NC(=O)[C@H]3N[C@@H]4CC[C@H]3C4)c(F)c2)s1 (stereo partly drawn) [Example 72] | 7300 | 10.8
33 | N#C[C@H](Cc1ccc(-c2ccco2)cc1F)NC(=O)[C@H]1N[C@@H]2CC[C@H]1C2 [Example 73] | 3100 | 11.2
34 | N#C[C@H](Cc1ccc(N2CCN(c3ccccc3)CC2)cc1F)NC(=O)[C@H]1N[C@@H]2CC[C@H]1C2 [Example 32, (1S,2S,4R)—N-[(1S)-1-cyano-2-[2-fluoro-4-(4-phenylpiperazin-1-yl)phenyl]ethyl]-3-azabicyclo[2.2.1]heptane-2-carboxamide] | 3900 | 4.5
35 | Cc1ccc(-c2ccc(C[C@@H](C#N)NC(=O)[C@H]3N[C@@H]4CC[C@H]3C4)c(F)c2)o1 [Example 27] | 3200 | 4
36 | Cc1c(-c2ccc(C[C@@H](C#N)NC(=O)[C@H]3N[C@@H]4CC[C@H]3C4)c(F)c2)cnn1C [Example 65] | 11700 | –
37 | Cn1nc2ccccc2c1-c1ccc(C[C@@H](C#N)NC(=O)[C@H]2N[C@@H]3CC[C@H]2C3)c(F)c1 [Example 60] | 12300 | 8.7
38 | CCn1cc(-c2ccc(C[C@@H](C#N)NC(=O)[C@H]3N[C@@H]4CC[C@H]3C4)c(F)c2)cn1 [Example 26] | 3600 | 4
39 | CNS(=O)(=O)c1ccc(-c2ccc(CC(C#N)NC(=O)[C@H]3N[C@@H]4CC[C@H]3C4)c(F)c2)cc1 (stereo partly drawn) [Example 51] | 4900 | 7.5
40 | COC(=O)c1cc(-c2ccc(C[C@@H](C#N)NC(=O)[C@H]3N[C@@H]4CC[C@H]3C4)c(F)c2)cs1 [Example 17] | 6100 | 2.6
41 | Cc1cc(-c2ccc(C[C@@H](C#N)NC(=O)[C@H]3N[C@@H]4CC[C@H]3C4)c(F)c2)n(C)n1 [Example 63] | 6200 | –
42 | Cc1c(-c2ccc(C[C@@H](C#N)NC(=O)[C@H]3N[C@@H]4CC[C@H]3C4)c(F)c2)cnn1C [Example 39] | 7800 | –
43 | CC(C)n1cc(-c2ccc(CC(C#N)NC(=O)[C@H]3N[C@@H]4CC[C@H]3C4)c(F)c2)cn1 (stereo partly drawn) [Example 68] | 7300 | –
